Laboratory results as given in patent US8241648B2, “Amphiphilic or lipophilic polar functionalized fullerenes and their uses” (Luna Innovations Incorporated, priority 2007, dated 2012).

Assay: Radical addition of an unstable nitrogen:peroxide radical (immobilized activated amine, butanone peroxide, xylene), measured by HPLC
Conditions: control anti-oxidant in xylene, same conditions
Experimental: An unstable nitrogen radical was made by adding butanone peroxide to nitrogen immobilized on a solid substrate in the presence of either C70, C60 or, as a control, the anti-oxidant Vitamin E in xylene. Radical addition of the substrate to the immobilized, activated amine is measured by HPLC. […] 74% of the C70 was bound to the nitrogen while only 27% of the C60 was bound.

Substance: Vitamin E
- reaction with the unstable nitrogen radical: did not react at all
